Source: patent US20030176358A1, “METHOD OF TREATING ENVIRONMENTAL STRESS” (priority 1997, published 2003)

How the values were obtained:
[1] = system: medial aspect of a human forearm exposed to tobacco smoke or exhaust gas; assay: Testing of suppression of a reduction in the corneum moisture content; type: in vivo; details: 1.0 wt % aqueous solution applied on human forearm; exposure 10 minutes a day for three months; Corneometer
Description: The floating fine particles exposure apparatus shown in FIG. 1 was used to expose a testee's skin to tobacco (with […] of tar and 2.4 mg of nicotine) smoke or exhaust gas fine particles sampled from an exhaust outlet of an automobile for 10 minutes per day for three months consecutively by bringing the medial aspect of the testee's forearm near the discharge port 14 of the floating fine particles of this exposure apparatus 10 (Exposure apparatus 10 uses a three-mouthed flask 11. That is, one of the mouths of the three-mouthed flask is used as an air inlet 12, another is used as an inlet 13 for floating fine particles such as tobacco smoke, and the third mouth is used as a discharge port 14. Floating fine particles such as tobacco smoke flow in through inlet 13 of the floating fine particles and an air flow which flows in through air inlet 12 is used to discharge them through open discharge port 14 of the floating fine particles. An object which is brought close to this discharge port 14 can be exposed to the floating fine particles such as tobacco smoke. Changes in the corneum moisture content after consecutive exposure to tobacco smoke or exhaust gas fine particles for the aforementioned three months were analyzed by using a Corneometer™ (Courage and Khazaka, Germany). The corneum moisture content is one of the indicators of skin conditions and is known to be an indicator which allows determination of the amount of moisture in the corneum. That is, in the case of rough skin, the corneum moisture content is smaller. A higher value of the corneum moisture content indicates better skin conditions. […] For each of these, the blank value of the corneum moisture content was measured. For the controls, “the group with no drug applied” and “the non-exposure group”, which was not exposed to tobacco smoke or exhaust gas, were used. Using the tobacco smoke exposure apparatus shown in the aforementioned FIG. 1, the medial aspect of the human forearm onto which the aforementioned ingredients had been applied was exposed to tobacco smoke or exhaust gas for 10 minutes a day for three months and the corneum moisture content of that area was investigated.

[2] = system: medial aspect of a human forearm exposed to tobacco smoke; assay: Testing of suppression of oxidation (ultraweak chemiluminescence of the skin); type: in vivo; details: 1.0 wt % solution applied on human forearm; tobacco smoke 90 seconds; measured for 30 minutes from 60 seconds after exposure
From the text: It is known that a phenomenon called “ultraweak chemiluminescence: CL” occurs on the skin of a living body including a human. This ultraweak chemiluminescence is known to occur in the radiation deactivation process of electrons from the excited state to the ground state.
For example, radicals such as singlet oxygen, excited carbonic acid, excited carbonyl, etc. are known to be this luminescent substance in a living body. Therefore, if this ultraweak chemiluminescence can be monitored, it is possible to adequately identify the oxidation reactions occurring on the human skin.
An 1.0 wt % aqueous solution of each of 1) thiotaurine (from Sogo Pharmaceutical Co., Ltd.), 2) hypotaurine (from Sogo Pharmaceutical Co., Ltd.), 3) glutathione, 4) tannin and 5) vitamin C derivative [L-ascorbic acid phosphate (magnesium)] was applied on the medial aspect of a human forearm. For each of these, a chemiluminescence detector (model OX-7 from Tohoku Electronic Industries Co., Ltd.) whose sample chamber had been modified for a human arm was used to carry out a 30 minute measurement to obtain the blank value of the ultraweak chemiluminescence for each of them. For the control, a solution of 1.0 wt % α-tocopherol was used.
In the same manner as in the aforementioned environmental stress suppression testing which used the corneum moisture content of the skin as the indicator, the medial aspect of a human forearm was brought close to the floating fine particles exposure apparatus shown in FIG. 1 to expose the medial aspect of the forearm, onto which the aforementioned ingredient(s) had been applied, to tobacco smoke for 90 seconds. Sixty seconds after exposure, the ultraweak chemiluminescence of the exposed part was measured for 30 minutes in the same manner as described above. […]

N[C@@H](CCC(=O)N[C@@H](CS)C(=O)NCC(=O)O)C(=O)O [glutathione] was tested, and the “suppression of the aggravation of skin conditions (reduction in the corneum moisture content) due to exposure to tobacco smoke or exhaust gas” value [1] was “effectively prevented” and the “reduction of the ultraweak chemiluminescence (oxidation reactions) on the skin” value (“reduction … on the skin” below) [2] was “particularly significant”.

For NCCS(=O)(O)=S [thiotaurine], the “suppression of the aggravation of skin conditions (reduction in the corneum moisture content) due to exposure to tobacco smoke or exhaust gas” value [1] was “effectively prevented” and the “reduction … on the skin” value [2] was “particularly significant”.

In the case of NCCS(=O)O [hypotaurine], the “suppression of the aggravation of skin conditions (reduction in the corneum moisture content) due to exposure to tobacco smoke or exhaust gas” value [1] is reported as “effectively prevented”.

CC1=C(/C=C/C(C)=C/C=C/C(C)=C/C=C/C=C(C)/C=C/C=C(C)/C=C/C2=C(C)CCCC2(C)C)C(C)(C)CCC1 [β-carotene, reference compound] was tested, and the “suppression of the aggravation of skin conditions (reduction in the corneum moisture content) due to exposure to tobacco smoke or exhaust gas” value [1] was “could only minimally suppress”.

Cc1c(C)c2c(c(C)c1O)CC[C@@](C)(CCC[C@H](C)CCC[C@H](C)CCCC(C)C)O2 [α-tocopherol, reference compound] was tested, and the “suppression of the aggravation of skin conditions (reduction in the corneum moisture content) due to exposure to tobacco smoke or exhaust gas” value [1] was “could only minimally suppress” and the “reduction … on the skin” value [2] was “could not effectively suppress”.
